Structures can show the parent of a compound that is named as a salt.
Tests used:
[1] = tested on: HCT116 FOPFlash; test: Control reporter assay, HCT116 FOP control vector (non-functional TCF elements), luciferase expression; type: cell-based; settings: Homo sapiens, HCT116 FOP control reporter cells, 36 hours incubation, dilution series 50 μM to 15 nM
Description: In a parallel approach, HCT116 cells were cotransfected with the FOP control vector and pcDNA3. The FOP vector is identical to the TOP construct, but it contains instead of functional TCF elements a randomized, non-functional sequence. For this transfection a stable transfected cell line was generated as well.
(§1) In preparation of the assay, the two cell lines were plated 24 hours before at 10000 cells per well of a 384 micro titre plate (MTP) in 30 μL growth medium. Selective inhibitory activity for small molecules on the mutated Wnt pathway was determined after parallel incubation of both (TOP and FOP) HCT116 reporter cell lines with a compound dilution series from 50 μM to 15 nM in steps of 3.16-fold dilutions in CAFTY buffer (130 mM NaCl, 5 mM KCl, 20 mM HEPES, 1 mM MgCl2, 5 mM NaHCO3, pH 7.4) containing 2 mM Ca^2+ and 0.01% BSA. The compounds were thereby serially prediluted in 100% DMSO and thereafter in addition 50 fold into the CAFTY compound dilution buffer (described above). From this dilution 10 μL were added to the cells in 30 μL growth medium and incubated for 36 hours at 37° C. and 5% CO2. Thereafter luciferase assay buffer (1:1 mixture of luciferase substrate buffer (20 mM Tricine, 2.67 mM MgSO4, 0.1 mM EDTA, 4 mM DTT, 270 μM Coenzyme A, 470 μM Luciferin, 530 μM ATP, ph adjusted to pH 7.8 with a sufficient volume of 5M NaOH) and Triton buffer (30 mL Triton X-100, 115 mL glycerol, 308 mg Dithiothreitol, 4.45 g Na2HPO4.2H2O, 3.03 g TRIS HCl, ad 1 l H20, pH 7.8) was added as equal volume to the compound solution on the cells to determine luciferase expression as a measure of Wnt signaling activity in a luminometer.

[2] = tested on: constitutive active colorectal cancer cell (CRC) Wnt pathway, HCT116 TOPFlash; test: Cellular reporter assay, HCT116 Super TopFlash (constitutive active Wnt pathway), luciferase expression; type: cell-based; settings: Homo sapiens, HCT116 Super TopFlash reporter cells, 36 hours incubation, dilution series 50 μM to 15 nM
Description: In order to discover and characterize small molecules which inhibit the constitutive active colorectal cancer cell (CRC) Wnt pathway, a cellular reporter assay was employed. The corresponding assay cell was generated by transfection of the colorectal cancer cell line HCT116 (ATCC, #CCL-247) with the Super TopFlash vector (Morin, Science 275, 1997, 1787-1790; Molenaar et al., Cell 86 (3), 1996, 391-399). The HCT116 cell line is cultivated at 37° C. and 5% CO2 in DMEM/F-12 (Life Technologies, #11320-074), supplemented with 2 mM glutamine, 20 mM HEPES, 1.4 mM pyruvate, 0.15% Na-bicarbonate and 10% foetal bovine serum (GIBCO, #10270), this cancer cell line is pathophysiological relevant since it carries a deletion of position S45 in the β-catenin gene, leading to constitutive active Wnt signaling. Stable transfectants were generated by cotransfection with pcDNA3 and selection of stable transfected cells with 1 mg/ml G418.
as §1

IC50 ([1]; HCT-116, 36 h)	IC50 ([2]; HCT-116, 36 h)	SMILES	IC50 ([1]; HCT-116)	IC50 ([2]; HCT-116)
≥ 50 µM	0.0188 µM	CN1CCN(CC(=O)Nc2cc(C(=O)Nc3ccc(-c4cccnc4)cn3)ccc2OC(F)(F)F)CC1 [Example 11, N-(3,3′-bipyridin-6-yl)-3-{[(4-methylpiperazin-1-yl)acetyl]amino}-4-(trifluoromethoxy)benzamide]	–	–
≥ 50 µM	0.278 µM	O=C(CN1CCOCC1)Nc1cc(C(=O)Nc2nnc(-c3cccnc3)s2)ccc1OC1CC1 [Example 35, 4-(cyclopropyloxy)-3-[(morpholin-4-ylacetyl)amino]-N-[5-(pyridin-3-yl)-1,3,4-thiadiazol-2-yl]benzamide]	–	–
≥ 50 µM	0.31 µM	Nc1ccc(-c2nnc(NC(=O)c3ccc(OC(F)(F)F)c(NC(=O)C4(N5CCOCC5)CC4)c3)s2)cn1 [Example 49, N-[5-(6-aminopyridin-3-yl)-1,3,4-thiadiazol-2-yl]-3-({[1-(morpholin-4-yl)cyclopropyl]carbonyl}amino)-4-(trifluoromethoxy)benzamide]	–	–
≥ 50 µM	4.1 µM	CN1CCN(CC(=O)Nc2cc(C(=O)Nc3cnc(-c4cnc(N)cn4)cn3)ccc2OC(F)(F)F)CC1 [Example 59, N-(5′-amino-2,2′-bipyrazin-5-yl)-3-{[(4-methylpiperazin-1-yl)acetyl]amino}-4-(trifluoromethoxy)benzamide]	–	–
≥ 50 µM	≥ 50 µM	O=C(CN1CCOCC1)Nc1cc(C(=O)Nc2nnc(-c3cnccc3F)s2)ccc1OC(F)(F)F [Example 107, N-[5-(4-fluoropyridin-3-yl)-1,3,4-thiadiazol-2-yl]-3-[(morpholin-4-ylacetyl)amino]-4-(trifluoromethoxy)benzamide]	–	–
≥ 50 µM	1 µM	COCCOc1ccc(C(=O)Nc2nnc(-c3cnccc3C)s2)cc1NC(=O)CN1CCN(C)CC1 [Example 73, 4-(2-methoxyethoxy)-3-{[(4-methylpiperazin-1-yl)acetyl]amino}-N-[5-(4-methylpyridin-3-yl)-1,3,4-thiadiazol-2-yl]benzamide]	–	–
≥ 50 µM	≥ 50 µM	O=C(CN1CCOCC1)Nc1cc(C(=O)Nc2nnc(-c3cnccn3)s2)ccc1OC1CC1 [Example 117, 4-(cyclopropyloxy)-3-[(morpholin-4-ylacetyl)amino]-N-[5-(pyrazin-2-yl)-1,3,4-thiadiazol-2-yl]benzamide]	–	–
≥ 50 µM	23.2 µM	Nc1ncc(-c2nnc(NC(=O)c3ccc(OC(F)(F)F)c(NC(=O)CN4CCOCC4)c3)s2)cn1 [Example 94, N-[5-(2-aminopyrimidin-5-yl)-1,3,4-thiadiazol-2-yl]-3-[(morpholin-4-ylacetyl)amino]-4-(trifluoromethoxy)benzamide]	–	–
≥ 50 µM	≥ 50 µM	O=C(CN1CCOCC1)Nc1cc(C(=O)Nc2nnc(-c3ccncc3)s2)ccc1OC(F)(F)F [Example 81, 3-[(morpholin-4-ylacetyl)amino]-N-[5-(pyridin-4-yl)-1,3,4-thiadiazol-2-yl]-4-(trifluoromethoxy)benzamide]	–	–
≥ 50 µM	21.2 µM	O=C(CN1CCOCC1)Nc1cc(C(=O)Nc2nnc(-c3cccnc3)s2)ccc1OC(F)(F)F [Example 82, 3-[(morpholin-4-ylacetyl)amino]-N-[5-(pyridin-3-yl)-1,3,4-thiadiazol-2-yl]-4-(trifluoromethoxy)benzamide]	–	–
–	–	Cc1cncc(-c2nnc(NC(=O)c3ccc(OC(F)(F)F)c(NC(=O)CN4CCN(C)CC4)c3)s2)c1 [Example 39, 1-methyl-4-(2-{[5-{[5-(5-methylpyridin-3-yl)-1,3,4-thiadiazol-2-yl]carbamoyl}-2-(trifluoromethoxy)phenyl]amino}-2-oxoethyl)piperazin-1-ium hexafluorophosphate]	≥ 50 µM	0.0858 µM
≥ 50 µM	≥ 50 µM	O=C(CN1CCOCC1)Nc1cc(C(=O)Nc2nnc(-c3ccncc3)s2)ccc1OC1CC1 [Example 116, 4-(cyclopropyloxy)-3-[(morpholin-4-ylacetyl)amino]-N-[5-(pyridin-4-yl)-1,3,4-thiadiazol-2-yl]benzamide]	–	–
≥ 50 µM	0.0415 µM	CN1CCN(CC(=O)Nc2cc(C(=O)Nc3ccc(-c4cccnc4F)cn3)ccc2OC(F)(F)F)CC1 [Example 13, N-(2′-fluoro-3,3′-bipyridin-6-yl)-3-{[(4-methylpiperazin-1-yl)acetyl]amino}-4-(trifluoromethoxy)benzamide]	–	–
≥ 50 µM	0.115 µM	COc1ncc(-c2ccc(NC(=O)c3ccc(OC(F)(F)F)c(NC(=O)C(C)N4CCOCC4)c3)cn2)cn1 (stereo not shown) [Example 7, N-[6-(2-methoxypyrimidin-5-yl)pyridin-3-yl]-3-{[2-(morpholin-4-yl)propanoyl]amino}-4-(trifluoromethoxy)benzamide]	–	–
≥ 50 µM	0.0183 µM	CN1CCN(CC(=O)Nc2cc(C(=O)Nc3ccc(-c4cncnc4)cn3)ccc2OC(F)(F)F)CC1 [Example 46, 3-{[(4-methylpiperazin-1-yl)acetyl]amino}-N-[5-(pyrimidin-5-yl)pyridin-2-yl]-4-(trifluoromethoxy)benzamide]	–	–
≥ 50 µM	≥ 50 µM	Cc1ncsc1-c1nnc(NC(=O)c2ccc(OC(F)(F)F)c(NC(=O)CN3CCOCC3)c2)s1 [Example 108, N-[5-(4-methyl-1,3-thiazol-5-yl)-1,3,4-thiadiazol-2-yl)-3-[(morpholin-4-ylacetyl)amino]-4-(trifluoromethoxy)benzamide]	–	–
10.3 µM	0.106 µM	CN1CCN(C2(C(=O)Nc3cc(C(=O)Nc4nnc(-c5ccccn5)s4)ccc3OC(F)(F)F)CC2)CC1 [Example 18, 3-({[1-(4-methylpiperazin-1-yl)cyclopropyl]carbonyl}amino)-N-[5-(pyridin-2-yl)-1,3,4-thiadiazol-2-yl]-4-(trifluoromethoxy)benzamide hydrochloride]	–	–
≥ 50 µM	18 µM	CN1CCN(CC(=O)Nc2cc(C(=O)Nc3nnc(-c4cncnc4)s3)ccc2OC(F)(F)F)CC1 [Example 87, 3-{[(4-methylpiperazin-1-yl)acetyl]amino}-N-[5-(pyrimidin-5-yl)-1,3,4-thiadiazol-2-yl)-4-(trifluoromethoxy)benzamide]	–	–
≥ 50 µM	≥ 50 µM	O=C(CN1CCOCC1)Nc1cc(C(=O)Nc2nnc(-c3cnccn3)s2)ccc1OC(F)(F)F [Example 88, 3-[(morpholin-4-ylacetyl)amino]-N-[5-(pyrazin-2-yl)-1,3,4-thiadiazol-2-yl]-4-(trifluoromethoxy)benzamide]	–	–
≥ 50 µM	0.0165 µM	CC(C(=O)Nc1cc(C(=O)Nc2ccc(-c3cccnc3F)nc2)ccc1OC(F)(F)F)N1CCOCC1 (stereo not shown) [Example 5, N-(2′-fluoro-2,3′-bipyridin-5-yl)-3-{[2-(morpholin-4-yl)propanoyl]amino}-4-(trifluoromethoxy)benzamide]	–	–
≥ 50 µM	0.24 µM	CN1CCN(CC(=O)Nc2cc(C(=O)Nc3nnc(-c4cncc(C(F)(F)F)c4)s3)ccc2OC(F)(F)F)CC1 [Example 57, 3-{[(4-methylpiperazin-1-yl)acetyl]amino}-4-(trifluoromethoxy)-N-{5-[5-(trifluoromethyl)pyridin-3-yl]-1,3,4-thiadiazol-2-yl}benzamide]	–	–
≥ 50 µM	0.12 µM	Nc1ncc(-c2ccc(NC(=O)c3ccc(OC(F)(F)F)c(NC(=O)CN4CCOCC4)c3)nc2)cn1 [Example 17, N-[5-(2-aminopyrimidin-5-yl)pyridin-2-yl]-3-[(morpholin-4-ylacetyl)amino]-4-(trifluoromethoxy)benzamide]	–	–
≥ 50 µM	0.24 µM	Cc1ccncc1-c1nnc(NC(=O)c2cc(NC(=O)CN3CCN(C)CC3)c(OC(F)(F)F)cc2F)s1 [Example 78, 2-fluoro-5-{[(4-methylpiperazin-1-yl)acetyl]amino}-N-[5-(4-methylpyridin-3-yl)-1,3,4-thiadiazol-2-yl]-4-(trifluoromethoxy)benzamide]	–	–

From patent US20170107212A1, “NOVEL COMPOUNDS” (Bayer Pharma Aktiengesellschaft, priority 2014, published 2017)
